Measured values: patent US20180008573A1, “METHODS AND COMPOSITIONS FOR REDUCING DAMAGE ASSOCIATED WITH OXIDATIVE PHOSPHORYLATION” (USANA Health Sciences, Inc., priority 2016, published 2018)

How the values were obtained:
C. elegans strain CB5586 = assay: C. elegans phenotypic lifespan screening (Kaplan-Meier, Log-Rank, Fisher's Exact Test); assay type: in vivo; details: for % Change in Mean Lifespan: 0.1 mg/ml vs. DMSO control; for restricted mean lifespan, # of Days: DMSO control 13.23
Description: Dilutions of the test formulations were applied to individual populations of C. elegans and the lifespan of each population was monitored. Any changes in the lifespan of an individual population compared to a control population were recorded and correlated to the respective test formulation (N356 or N357) and the respective dilution (0.1 mg/ml, 1 mg/ml, and 10 mg/ml).
The […] and N357 formulations were each prepared as individual 100 mg/ml stock solutions in dimethyl sulfoxide (DMSO). Serial dilutions of each stock solution were then prepared at 0.1 mg/ml, 1 mg/ml, and 10 mg/ml in DMSO. Control solutions of DMSO only were also prepared. Synchronous aged adult populations of C.elegans strain CB5586 worms were prepared. The CB5586 strain comprises a pharyngeal GFP (green fluorescent protein) tag and a mutation in the bus-5 gene. The pharyngeal GFP tag allows for fluorescent images of the worm populations to be taken. The mutation in the bus-5 gene causes the loss of normal cuticle antigens that permits the cuticle of the worms to become permeable to the test formulations and allow direct uptake of the test formulations to avoid interaction of the test formulations with protective mechanisms of the gut channel. Each serial dilution of each test formulation was added to a separate population of the prepared worms. The control solutions were also added to separate populations of the prepared worms. The populations of the prepared worms were then maintained on standard nematode growth media (NGM) agar plates at 20° C. with sufficient food (Escherichia coli strain OP-50).
Each worm population was then monitored by fluorescent imaging to determine the number of living and dead worms as a function of time. The fluorescent imaging was analyzed by software that recognized and counted worms based on their fluorescent intensity compared to background fluorescence. […] The ability to distinguish between living and dead worms allowed the number of living worms and cumulative number of dead worms to be monitored against time. Worm populations from a selection of fluorescent images were manually checked to verify that the software had accurately counted the number of living and dead worms.
The counts of the living and dead worms as a function of time were then analyzed for each of the worm populations and used to prepare Kaplan-Meier survival curves and associated statistics for each of the worm populations. […] The median lifespan is shown as the length of time after the last mitotic division that 50% of the test population remains viable when compared to the control population. The maximum lifespan extension is shown as the length of time after the last mitotic division that 5% of the test population remains viable when compared to the control population.
The counts of the living and dead worms as a function of time and the Kaplan-Meier survival curves and the associated statistics were then analyzed for each of the worm populations. The analysis included determining mean and median lifespan. The analysis included a non-parametric test, the Log-Rank test, that compares two survival functions for the overall lifespan assay and provides a reliable p-value summarizing the whole experiment. The analysis also included Fisher's Exact Test that calculated the significance of survival function comparisons at multiple specific time points throughout the experiment, rather than for the overall lifespan. The results of the analysis are shown below in Tables 10-17.
Phenotypic screening was carried out as described in EXAMPLE 2 for various individual compounds of the N357 formulation. […] Alpha lipoic acid was sourced from PureBulk USA as a racemic mix of R and S stereoisomers and was assigned a sample number of N198. Hesperidin was sourced from Sigma Aldrich at ≧80% purity and was assigned a sample number of N347. […]

human NF-κB = assay: NF-κB antagonist reporter assay (NF-κB GRE-luciferase, HEK293 cells); assay type: cell-based;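 further: reporter cells carry native NF-κB receptor with firefly luciferase under upstream response elements, with a vehicle control included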
NF-κB reporter cells = assay: Live cell multiplex assay in the NF-κB antagonist assay; assay type: cell-based, human
Description: A vehicle control was prepared.

Compound | population age in days at 25% mortality (C. elegans strain CB5586; 0.1 mg/ml) [days] | population age in days at 50% mortality (C. elegans strain CB5586; 0.1 mg/ml) [days] | population age in days at 75% mortality (C. elegans strain CB5586; 0.1 mg/ml) [days] | % Change in Mean Lifespan (C. elegans strain CB5586) | restricted mean lifespan, # of Days (C. elegans strain CB5586; 0.1 mg/ml) [days] | population age in days at 25% mortality (C. elegans strain CB5586; 10 mg/ml) [days] | population age in days at 50% mortality (C. elegans strain CB5586; 10 mg/ml) [days] | population age in days at 75% mortality (C. elegans strain CB5586; 10 mg/ml) [days] | restricted mean lifespan, # of Days (C. elegans strain CB5586; 10 mg/ml) [days] | also measured
C[C@@H]1O[C@@H](OC[C@H]2O[C@@H](Oc3c(-c4ccc(O)c(O)c4)oc4cc(O)cc(O)c4c3=O)[C@H](O)[C@@H](O)[C@@H]2O)[C@H](O)[C@H](O)[C@H]1O [N346, rutin hydrate] | 9 | 11 | 14 | −8% | 12.03 | 11 | 14 | 16 | 13.43 | decrease of lifespan (C. elegans strain CB5586; 0.1 mg/ml): about 9%; population age in days at 90% mortality (C. elegans strain CB5586; 0.1 mg/ml): 18 days
COc1ccc([C@@H]2CC(=O)c3c(O)cc(O[C@@H]4O[C@H](CO[C@@H]5O[C@@H](C)[C@H](O)[C@@H](O)[C@H]5O)[C@@H](O)[C@H](O)[C@H]4O)cc3O2)cc1O [N347, hesperidin] | 11 | 16 | 18 | +10% | 14.55 | 11 | 14 | 18 | 14.19 | Statistically Significant Result (lifespan vs. DMSO control) (C. elegans strain CB5586; 0.1 mg/ml): Statistically significant increase; extension of lifespan (C. elegans strain CB5586; 0.1 mg/ml): about 10%; effect on chronological lifespan (C. elegans strain CB5586; 0.1 mg/ml and 10 mg/ml tested): significant positive and dose dependent increase of chronological lifespan; Statistically Significant Result (lifespan vs. DMSO control) (C. elegans strain CB5586; 10 mg/ml): No statistical difference
C[C@@H]1O[C@@H](OC[C@H]2O[C@@H](Oc3c(-c4ccc(O)c(O)c4)oc4cc(O)cc(O)c4c3=O)[C@H](O)[C@@H](O)[C@@H]2O)[C@H](O)[C@H](O)[C@H]1O [Rutin, quercetin-3-O-rutinoside] |  |  |  |  |  |  |  |  |  | NF-κB % Inhibition (human NF-κB; 1.11 μg/ml active ingredient): 10%; NF-κB % Inhibition (human NF-κB; 3.3 μg/ml active ingredient): −2.3%; NF-κB % Inhibition (human NF-κB; 10.0 μg/ml active ingredient): −11%; NF-κB % Inhibition (human NF-κB; 30 μg/ml active ingredient): −15%; NF-κB % Live Cell (NF-κB reporter cells; 1.11 μg/ml active ingredient): 99%; NF-κB % Live Cell (NF-κB reporter cells; 3.3 μg/ml active ingredient): 98%; NF-κB % Live Cell (NF-κB reporter cells; 10.0 μg/ml active ingredient): 101%; NF-κB % Live Cell (NF-κB reporter cells; 30 μg/ml active ingredient): 97%
